Reference: the NIST ThermoML archive (doi:10.1016/j.fluid.2006.07.007)
Numbers after ± are expanded uncertainties.

Settings: Liquid, Ebulliometric method (Recirculating still)

CCO [ethanol]
Settings	vapor or sublimation pressure [kPa]
292.33 K	5.593 ± 0.048
303.83 K	10.86 ± 0.06
311.14 K	16.15 ± 0.091
317.9 K	22.84 ± 0.12
323.09 K	29.41 ± 0.15
326.8 K	35.11 ± 0.18
330.56 K	41.76 ± 0.21
333.94 K	48.61 ± 0.24
337.18 K	56.06 ± 0.27
339.97 K	63.2 ± 0.3
342.3 K	69.73 ± 0.31
